Results published in patent US9107926B2, “Mutant selectivity and combinations of a phosphoinositide 3-kinase inhibitor compound and chemotherapeutic agents for the treatment of cancer” (Genentech, Inc., priority 2012, dated 2015).

What was measured:
H838 = assay: CellTiter-Glo cell proliferation assay; type: cell-based; details: Homo sapiens, NCI-H838, Lung(NSCLC), WT
Protocol: (§1) Cell Culture Medium: RPMI or DMEM high glucose, 10% Fetal Bovine Serum, 2 mM L-Glutamine, P/S. Incubate O/N (overnight) at 37° C., 5% CO2.
(§2) Drug Addition to Cells, Cell Plate (1:10 dilution): Add 6 μl of media+compound directly to cells (54 μl of media on the cells already). Incubate 3 days at 37° C., 5% CO2 in an incubator that will not be opened often.
(§3) Day 5—Develop Plates, Thaw Cell Titer Glo Buffer at room temperature: Remove Cell Plates from 37° C. and equilibrate to room temperature for about 30 minutes. Add Cell Titer-Glo® Buffer to Cell Titer-Glo® Substrate (bottle to bottle). Add 30 μl Cell Titer-Glo® Reagent (Promega cat.#G7572) to each well of cells. Place on plate shaker for about 30 minutes. Read luminescence on Analyst HT Plate Reader (half second per well).

MO59K = assay: CellTiter-Glo cell proliferation assay; type: cell-based; details: Glioma, PTEN/KRAS
IGROV1 = assay: CellTiter-Glo cell proliferation assay; type: cell-based; details: Homo sapiens, IGROV-1, Ovarian, Kinase-HET.1069O > W
Protocol: as §1, §2, §3

SF539 = assay: CellTiter-Glo cell proliferation assay; type: cell-based; details: Homo sapiens, SF-539, Glioma, PTEN
H82 = assay: CellTiter-Glo cell proliferation assay; type: cell-based; details: Homo sapiens, NCI-H82, Lung(SC), PTEN
[1] = tested on: SW48 PIK3CA H1047R knock-in mutant subclone; assay: four day CellTiter-Glo viability assay, SW48 isogenic cell line set; details: Homo sapiens, SW48, 96 h, read-out: Viability EC50
Source text: (§4) SW48 parental cells and knock-in mutant subclones harboring common PIK3CA hotspot mutations E545K or H1047R were obtained from Horizon Discovery.

[2] = tested on: HCC1954.x1 breast tumor xenografts; assay: In vivo mouse tumor xenograft efficacy; parameters: species or system mice; details: for % TGI@ day 21: QD x 21, PO
Protocol: The term uL means microliter.
Xenografts were initiated with cancer cells. […] Volume was calculated using the formula: […]

H1781 = assay: CellTiter-Glo cell proliferation assay; type: cell-based; details: NCI-H1781, Lung(NSCLC), PTEN
TOV21GX1 = assay: CellTiter-Glo cell proliferation assay; type: cell-based; details: Ovarian, PTEN/HET.1047H > Y
H650 = assay: CellTiter-Glo cell proliferation assay; type: cell-based; details: Homo sapiens, NCI-H650, Lung(NSCLC), K-RAS
H2009 = assay: CellTiter-Glo cell proliferation assay; type: cell-based; details: Homo sapiens, NCI-H2009, Lung(NSCLC), K-RAS
HCT116 = assay: CellTiter-Glo cell proliferation assay; type: cell-based; details: Homo sapiens, HCT-116, Colon, KRAS/HET.1047H > R
SW48 parental cells = assay: four day CellTiter-Glo viability assay, SW48 isogenic cell line set; details: Homo sapiens, SW48, 96 h, read-out: Viability EC50
Source text: as §4

[3] = tested on: SKOV3 ovarian tumor xenografts; assay: In vivo mouse tumor xenograft efficacy; details: PO daily (QD), 21 day treatment period
HPAC = assay: CellTiter-Glo cell proliferation assay; type: cell-based; details: Homo sapiens, Pancreatic, K-RAS
22RV1 = assay: CellTiter-Glo cell proliferation assay; type: cell-based; details: Homo sapiens, Prostate, Helical-HET.546Q > R
BT474 = assay: CellTiter-Glo cell proliferation assay; type: cell-based; details: Homo sapiens, BT-474, Breast, HER2 Amplified
H520 = assay: CellTiter-Glo cell proliferation assay; type: cell-based; details: Homo sapiens, NCI-H520, Lung(NSCLC), PTEN
SW620 = assay: CellTiter-Glo cell proliferation assay; type: cell-based; details: Homo sapiens, SW-620, Colon, K-RAS
HCC-2218 = assay: CellTiter-Glo cell proliferation assay; type: cell-based; details: Homo sapiens, HCC2218, Breast, WT
EFM-192A = assay: CellTiter-Glo cell proliferation assay; type: cell-based; details: Breast, HET.420C > R
PC3 = assay: CellTiter-Glo cell proliferation assay; type: cell-based; details: Homo sapiens, PC-3, Prostate, PTEN
LN-229 = assay: CellTiter-Glo cell proliferation assay; type: cell-based; details: Homo sapiens, Glioma, Helical-HET.545E > K
H2030 = assay: CellTiter-Glo cell proliferation assay; type: cell-based; details: Homo sapiens, NCI-H2030, Lung(NSCLC), K-RAS
H1048 = assay: CellTiter-Glo cell proliferation assay; type: cell-based; details: Homo sapiens, NCI-H1048, Lung(SC), Kinase-HET.1047H > R, HET.391I > M
AU565 = assay: CellTiter-Glo cell proliferation assay; type: cell-based; details: Homo sapiens, Breast, HER2 Amplified
SF268 = assay: CellTiter-Glo cell proliferation assay; type: cell-based; details: Homo sapiens, SF-268, Glioma, WT
CAL51 = assay: CellTiter-Glo cell proliferation assay; type: cell-based; details: Homo sapiens, CAL-51, Breast, PTEN/HET.542E > K
Protocol: as §1, §2, §3

EVSA-T = assay: CellTiter-Glo cell proliferation assay; type: cell-based; details: Homo sapiens, Breast, PTEN
ABC-1 = assay: CellTiter-Glo cell proliferation assay; type: cell-based; details: Homo sapiens, Lung(NSCLC), WT
PI3K alpha E545K mutant = PI3K alpha E545K mutant (Homo sapiens, UniProt P42336, E545K); details: relative to PI3K alpha
Protocol: After an incubation time of 30 minutes at room temperature, the reactions were stopped by the addition of GRP-1 and PIP3-TAMRA probe (Echelon-Inc., Salt Lake City, Utah.) 100 nM and 5 nM final concentrations respectively. Read with standard cut-off filters for the rhodamine fluorophore (λex=530 nm; λem=590 nm) in 384-well black low volume Proxiplates® (PerkinElmer, Wellesley, Mass.) Fluorescence polarization values were plotted as a function of the protein concentration. EC50 values were obtained by fitting the data to a four-parameter equation using KaleidaGraph® software (Synergy software, Reading, Pa.). This experiment also establishes the appropriate protein concentration to use in subsequent competition experiments with inhibitors.
After an incubation time of 30 minutes at room temperature, the reactions were stopped by the addition of GRP-1 and PIP3-TAMRA probe (Echelon-Inc., Salt Lake City, Utah.) 100 nM and 5 nM final concentrations respectively.
The compound was serially diluted in 100% DMSO. The kinase reaction was incubated for 1 h at room temperature, and the reaction was terminated by the addition of PBS. IC50 values were subsequently determined using sigmoidal dose-response curve fit (variable slope).

H661 = assay: CellTiter-Glo cell proliferation assay; type: cell-based; details: Homo sapiens, NCI-H661, Lung(NSCLC), WT
MDA-MB-468 = assay: CellTiter-Glo cell proliferation assay; type: cell-based; details: Homo sapiens, Breast, PTEN
EFM-19 = assay: CellTiter-Glo cell proliferation assay; type: cell-based; details: Homo sapiens, Breast, Kinase-HOM.1047H > L
Protocol: as §1, §2, §3

G22 = assay: CellTiter-Glo cell proliferation assay; type: cell-based; details: Glioma, PTEN
H322 = assay: CellTiter-Glo cell proliferation assay; type: cell-based; details: NCI-H322, Lung(NSCLC), WT
HCC-1428 = assay: CellTiter-Glo cell proliferation assay; type: cell-based; details: Homo sapiens, HCC1428, Breast, WT
MDA-MB-436 = assay: CellTiter-Glo cell proliferation assay; type: cell-based; details: Homo sapiens, Breast, PTEN

PI3K alpha E545K mutant, sequence (P42336 whole entry E545K): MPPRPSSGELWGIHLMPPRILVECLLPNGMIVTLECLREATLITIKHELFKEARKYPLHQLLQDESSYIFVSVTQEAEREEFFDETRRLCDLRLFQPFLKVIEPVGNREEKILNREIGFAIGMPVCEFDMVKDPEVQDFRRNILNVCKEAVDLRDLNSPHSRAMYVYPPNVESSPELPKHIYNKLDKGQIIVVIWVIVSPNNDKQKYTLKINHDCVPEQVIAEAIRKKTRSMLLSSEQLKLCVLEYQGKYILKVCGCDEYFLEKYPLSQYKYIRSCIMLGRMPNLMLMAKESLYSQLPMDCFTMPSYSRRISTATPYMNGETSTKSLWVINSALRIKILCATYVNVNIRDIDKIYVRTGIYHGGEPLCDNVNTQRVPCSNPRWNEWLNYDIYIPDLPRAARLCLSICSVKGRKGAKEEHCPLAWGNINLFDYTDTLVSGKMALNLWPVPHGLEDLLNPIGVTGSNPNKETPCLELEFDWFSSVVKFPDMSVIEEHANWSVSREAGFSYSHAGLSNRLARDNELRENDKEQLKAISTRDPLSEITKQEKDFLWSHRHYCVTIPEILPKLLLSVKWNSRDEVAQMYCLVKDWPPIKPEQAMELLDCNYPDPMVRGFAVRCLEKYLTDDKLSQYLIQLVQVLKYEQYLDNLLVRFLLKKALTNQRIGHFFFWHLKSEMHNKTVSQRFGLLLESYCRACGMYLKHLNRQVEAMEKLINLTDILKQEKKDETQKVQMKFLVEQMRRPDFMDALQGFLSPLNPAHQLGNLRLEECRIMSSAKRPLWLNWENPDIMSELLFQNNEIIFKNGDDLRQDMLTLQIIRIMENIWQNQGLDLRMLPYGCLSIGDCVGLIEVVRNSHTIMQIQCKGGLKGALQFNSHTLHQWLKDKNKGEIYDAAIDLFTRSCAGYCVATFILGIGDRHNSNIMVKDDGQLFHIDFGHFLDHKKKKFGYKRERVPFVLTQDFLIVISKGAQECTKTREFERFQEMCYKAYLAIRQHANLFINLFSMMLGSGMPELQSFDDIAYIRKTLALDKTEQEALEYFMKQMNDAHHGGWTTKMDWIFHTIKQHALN
PI3K alpha E545K mutant, sequence (P27986 whole entry partner): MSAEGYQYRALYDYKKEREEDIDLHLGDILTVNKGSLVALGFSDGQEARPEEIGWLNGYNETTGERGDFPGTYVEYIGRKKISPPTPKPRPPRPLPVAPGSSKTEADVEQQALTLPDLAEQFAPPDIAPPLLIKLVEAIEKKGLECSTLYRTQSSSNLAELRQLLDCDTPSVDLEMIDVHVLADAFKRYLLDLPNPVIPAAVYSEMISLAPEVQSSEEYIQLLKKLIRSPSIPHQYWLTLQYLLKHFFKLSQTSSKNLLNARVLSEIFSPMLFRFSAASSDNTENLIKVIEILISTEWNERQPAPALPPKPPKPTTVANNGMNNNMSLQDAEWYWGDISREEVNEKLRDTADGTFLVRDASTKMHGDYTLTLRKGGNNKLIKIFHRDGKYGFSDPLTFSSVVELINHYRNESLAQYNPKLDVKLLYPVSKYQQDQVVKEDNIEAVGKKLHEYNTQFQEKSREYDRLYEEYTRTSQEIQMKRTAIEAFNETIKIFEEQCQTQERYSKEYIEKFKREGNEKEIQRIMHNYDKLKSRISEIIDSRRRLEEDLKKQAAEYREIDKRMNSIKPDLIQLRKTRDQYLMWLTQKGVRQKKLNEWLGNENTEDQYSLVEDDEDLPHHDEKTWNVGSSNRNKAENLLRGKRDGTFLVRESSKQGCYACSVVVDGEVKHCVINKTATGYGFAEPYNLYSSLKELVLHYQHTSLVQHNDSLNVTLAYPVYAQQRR

Cc1nc(-c2cn3c(n2)-c2ccc(-c4cnn(C(C)(C)C(N)=O)c4)cc2OCC3)n(C(C)C)n1 [GDC-0032, 2-(4-(2-(1-isopropyl-3-methyl-1H-1,2,4-triazol-5-yl)-5,6-dihydrobenzo[f]imidazo[1,2-d][1,4]oxazepin-9-yl)-1H-pyrazol-1-yl)-2-methylpropanamide]
EC50 (H838): 3.1 µM
EC50 (MO59K): 4.98 µM
EC50 (IGROV1): 31 nM
EC50 (SF539): 1880 nM
EC50 (H82): 10 µM
EC50 [1]: 8 nM
% TGI@ day 21 ([2]; 1.56 mg/kg): 53%
% TGI@ day 21 ([2]; 3.125 mg/kg): 79%
% TGI@ day 21 ([2]; 6.25 mg/kg): 98%
% TGI@ day 21 ([2]; 12.5 mg/kg): 118%
% TGI@ day 21 ([2]; 25 mg/kg): 138%
maximum TGI ([2]; daily dosing, end of dosing on day 21): 138%
tumor response ([2]; doses of 12.5 and 25 mg/kg): Tumor regressions were observed
EC50 (H1781): 561 nM
EC50 (TOV21GX1): 10 µM
EC50 (H650): 10 µM
EC50 (H2009): 710 nM
EC50 (HCT116): 897 nM
EC50 (SW48 parental cells): 22 nM
tumor volume change [3]: dose-dependent decrease in tumor volume
EC50 (HPAC): 645 nM
EC50 (22RV1): 50 nM
EC50 (BT474): 84 nM
EC50 (H520): 264 nM
EC50 (SW620): 10 µM
EC50 (HCC-2218): 90 nM
EC50 (EFM-192A): 101 nM
EC50 (PC3): 864 nM
EC50 (LN-229): 3.41 µM
EC50 (H2030): 2310 nM
EC50 (H1048): 14 nM
EC50 (AU565): 93 nM
EC50 (SF268): 1070 nM
EC50 (CAL51): 326 nM
EC50 (EVSA-T): 1120 nM
EC50 (ABC-1): 234 nM
PI3K alpha E545K mutant (PI3K alpha E545K mutant): 0.4x
EC50 (H661): 497 nM
EC50 (MDA-MB-468): 7.88 µM
EC50 (EFM-19): 13 nM
EC50 (G22): 6.02 µM
EC50 (H322): 280 nM
EC50 (HCC-1428): 10 µM
EC50 (MDA-MB-436): 4.69 µM
